# Experimental data taken from patent publication US20240122894A1, “METHODS TO SYNTHESIZE FLAVONOID DIMERS AND OLIGOMERS AND THE USE THEREOF” (National University of Singapore, priority 2020, published 2024).
# Assays:
# [1] = tested on: Aspergillus niger ATCC 16888; test: Antifungal activity, radial growth technique on PDA medium; assay type: cell-based; conditions: ATCC16888, read-out: IC50, inhibition of the growth of A. niger
# Method: The antifungal activity was evaluated against two fungi, Aspergillus niger ATCC 16888 and Botrytis cinerea ATCC 11542, isolated and identified with ITS gene (GenBank accession number AY373852, A. S. Taha et al., BioResources 2019, 14, 6025-6046). The bioassay was evaluated using the radial growth technique method (P. Wayne, Reference method for broth dilution antifungal susceptibility testing of yeasts, approved standard. CLSI document M27-A2, 2002). Both fungal strains were cultivated aerobically on PDA medium at 25° C. for 14 days. The fungal spores were collected with sterile cotton swabs and suspended in sterile water, and the concentrations were adjusted according to the requirements of the antifungal assays to be performed.
# Flavonoids oligomers were dissolved in DMSO ([…]), then transferred into sterilized warm PDA medium (40 to 45° C.) to achieve a final concentration of 1.0 mg/mL, 0.6 mg/mL and 0.4 mg/mL, before immediately pouring into 24-well sterile plastic microtitration plates containing flat-bottomed wells (Corning Incorporated, costar). […]
# From a 7-day-old colony, the fungus with discs of 9 mm diameter was transferred to the center of the treated PDA plates and controls. […] All the tested concentrations, as well as positive and negative controls, were measured in triplicate.
# [2] = molecular target: T1, α-amylase (Sus scrofa, UniProt P00690); test: High-throughput starch hydrolase inhibition assay (turbidity, corn starch); assay type: biochemical
# T1 sequence (P00690 16-511): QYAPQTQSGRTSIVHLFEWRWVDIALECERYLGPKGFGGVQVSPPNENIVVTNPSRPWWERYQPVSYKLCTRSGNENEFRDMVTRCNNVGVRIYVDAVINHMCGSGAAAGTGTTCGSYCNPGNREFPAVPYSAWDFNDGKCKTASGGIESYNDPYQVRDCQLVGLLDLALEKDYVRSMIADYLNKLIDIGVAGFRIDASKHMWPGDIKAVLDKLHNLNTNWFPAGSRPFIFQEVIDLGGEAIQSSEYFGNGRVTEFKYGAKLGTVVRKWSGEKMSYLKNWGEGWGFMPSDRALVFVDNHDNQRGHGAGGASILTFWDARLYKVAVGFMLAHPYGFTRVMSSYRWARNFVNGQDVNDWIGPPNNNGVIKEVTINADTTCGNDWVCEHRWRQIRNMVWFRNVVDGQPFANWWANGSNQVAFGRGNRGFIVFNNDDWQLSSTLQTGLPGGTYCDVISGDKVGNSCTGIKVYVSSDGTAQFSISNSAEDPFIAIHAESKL
# Method: (§1) The inhibitory activity of each fraction obtained on α-amylase and α-glucosidase were determined using the turbidity measurement according to a reported method (Liu, Song, Wang, & Huang, 2011, Journal of agricultural and food chemistry 2011 Vol. 59 Issue 18 Pages 9756-9762). Corn starch (20 mg/mL) was suspended in sodium phosphate buffer (0.1 M, pH 6.9) and gelatinized at 100° C. for 2.5 min. The inhibitor solution was diluted in buffer to appropriate concentrations. Acarbose was used as a positive control and a reference standard. α-amylase solution (2 U/mL in buffer, 20 μL) or α-glucosidase solution (1×10−2 U/mL in buffer) was pre-incubated with inhibitor solution (20 μL) with series of concentrations in a 96-well microplate and kept at 37° C. for 15 min. The reaction was initiated by injecting 60 μL of the gelatinized corn starch solution. The turbidity changes were recorded at 660 nm every minute for 2 h using a Synergy HT microplate reader (Biotek Instruments Inc., Winooski, VT, USA). The inhibition percentage was calculated using Equation 10.
# (§2) Inhibition (%)=(AUCsample−AUCcontrol)/AUCsample×100% (Equation 10)
# (§3) Where AUCsample is the area under the inhibitory curve and AUCcontrol is the area under the curve negative control. The IC50 can be defined as the concentration of an inhibitor that produces 50% inhibition of enzyme activity under a specified assay condition. It was obtained from interpolation of percentage of inhibition against inhibitor concentration curve. In order to avoid run-to-run error due to fluctuation of enzymatic activity, the acarbose equivalent (AE) was used to express the inhibitory activity of sample based on the following equation:
# (§4) AE of a sample=IC50 of acarbose/IC50 of a sample (Equation 11)
# [3] = tested on: α-glucosidase; test: as above; assay type: biochemical
# Method: as §1, §2, §3, §4
# [4] = tested on: blood glucose; test: Glycemic response of mice after starch gavage; assay type: in vivo
# Method: A 10% (w/v) starch solution was prepared by addition of distilled water to reagent grade corn starch and heating the solution it in a boiling water bath for about 15 minutes until it was completely gelatinized. 8-week-old male wild-type C57BL/6J mice were fasted overnight (free water intake), and weighed the next day. The tail of the mice was trimmed and the blood was taken for measurement of fasting blood glucose concentration with a Roche blood glucose meter. Feeding method a, “YX2+Starch”: Luteolin dimer (2a) was gavaged as a 2 mg/mL water solution, at the dosage level of 20 mg/kg body weight of the animal. Thirty minutes later, the 10% (w/v) starch solution was gavaged at 1 g/kg body weight. Feeding method b, “Starch (+YX2)”: Luteolin dimer (2a) was mixed with starch at 0.2% ratio by dried weight and mixed with water (1:9 by weight) to give a slurry labelled as Starch (+YX2) (FIG. 41). The mixture was gavaged to mice at with 1 g/kg body weight. In comparison, luteolin (1a or YX1) was mixed with starch at 0.2% by weight. The resulting mixture was further mixed with water to give 10% starch slurry labelled as starch (+YX1) (FIG. 41). The mice were gavaged with 1 g/kg body weight. The blood glucose values were measured at 30, 60, 90, 120 minutes to make the blood glucose curve, GraphPad draws the blood glucose response curve after meal, and the area under the curve was calculated.
# [5] = Determination of pKa values by 13C NMR spectroscopy under argon; assay type: physicochemical
# Method: Luteolin (200 mg) was added in the three-necks round bottle flask fitted with a pH meter under argon (FIG. 12). Degassed water (20 mL) was added with stirring. To the solution, degassed aqueous KOH solution was injected through a syringe to adjust the pH. Aliquots (500 μL) of samples at a given pH value were transferred to 5 mm NMR tubes (Armar Chemicals, Switzerland). To the same NMR tube, deuterium oxide (D20, 5.0 μL) was added introduced for deuterium lock and a DMSO-d6 solution encapsulated in capillary tube (FIG. 12) was placed in the tube as the external standard for (at 2.50 ppm for CD3SOCD3, H. E. Gottlieb, V. Kotlyar & A. Nudelman, J. Org. Chem. 1997, 62, 7512-7515). The spectra were recorded and analyzed with MestReNova (Mestrelab research, version 5.2.5-4119). The resulting sigmoidal curve was subjected to nonlinear curve fitting using Prism® (GraphPad, version 5.0b and 5.0f). The dissociation constant pKa was calculated using the Henderson-Hasselback equation (Equation 1-4).
# Where LH4, LH3^−, LH2^2−, LH^3− and L^4− are the species of luteolin in fully protonated form, first deprotonated, second deprotonated, third deprotonated 100% deprotonated form.
# The chemical shift of the carbons in luteolin is dependent on the relative concentrations of the conjugate pair. For a solution at pH within pKa1 range, and the species in solution is ˜100% protonated (LH4), and the chemical shifts are that of the protonated species, δlow−1. For a solution at a higher pH the species in solution is first deprotonated (LH3^−), and the chemical shifts are that of the deprotonated species, δhigh−1.
# Equation 7-8 were applied to determine the mole fraction of conjugate pair from chemical shift of a specific carbon. The assignment of ^13C NMR of luteolin was further confirmed by HSQC and HMBC methods with 2D correlation with ^1H NMR.
# [6] = Solubility in water (observation); assay type: physicochemical; conditions: in water or slightly basic aqueous solution
# [7] = literature (Electrochim. Acta 2013); cited from earlier work
# [8] = 0.2% mixture of compound in starch, gavaged at 1 g/kg body weight
Structure (SMILES),IC50 [1],activity in inhibiting α-amylase compared with acarbose [2],activity in inhibiting α-glucosidase compared with acarbose [3],glycemic response ([4]; 20 mg/kg by gavage 30 minutes before starch at 1 g/kg body weight (curve YX2+starch)),"glycemic response [4, 8]","glycemic response ([4]; mice fed only with compound at 20 mg/kg body weight, no starch)",pKa3 ([5]; C(3′)-OH),pKa2 ([5]; C(4′)-OH),pKa4 ([5]; C(5)-OH),"pKa1 ([5]; C(7)-OH, first deprotonation)",solubility [6],"pKa1, literature values [7]"
"O=c1cc(-c2ccc(O)c(O)c2-c2c(O)cc3oc(-c4ccc(O)c(O)c4)cc(=O)c3c2O)oc2cc(O)cc(O)c12 [Compound 2a, 6-(6-(5,7-dihydroxy-4-oxo-4H-chromen-2-yl)-2,3-dihydroxyphenyl)-2-(3,4-dihydroxyphenyl)-5,7-dihydroxy-4H-chromen-4-one]",860 nM,comparable,comparable,no glycemic response,comparable to that of the mice fed only with same dose of starch,did not lead to glycemic response,–,–,–,–,–,–
"O=c1cc(-c2ccc(O)c(O)c2-c2c(O)cc3oc(-c4ccc(O)cc4)cc(=O)c3c2O)oc2cc(O)cc(O)c12 [Compound 2b, 6-(6-(5,7-dihydroxy-4-oxo-4H-chromen-2-yl)-2,3-dihydroxyphenyl)-5,7-dihydroxy-2-(4-hydroxyphenyl)-4H-chromen-4-one]",–,even higher,even higher,–,–,–,–,–,–,–,–,–
"O=c1cc(-c2ccc(O)c(O)c2-c2c(O)cc3oc(-c4ccc(O)c(O)c4-c4c(O)cc5oc(-c6ccc(O)c(O)c6)cc(=O)c5c4O)cc(=O)c3c2O)oc2cc(O)cc(O)c12 [Compound 3a, 6-(6-(5,7-dihydroxy-4-oxo-4H-chromen-2-yl)-2,3-dihydroxyphenyl)-2-(2-(2-(3,4-dihydroxyphenyl)-5,7-dihydroxy-4-oxo-4H-chromen-6-yl)-3,4-dihydroxyphenyl)-5,7-dihydroxy-4H-chromen-4-one]",960 nM,–,–,–,–,–,–,–,–,–,–,–
O=c1cc(-c2ccc(O)c(O)c2)oc2cc(O)cc(O)c12 [luteolin],–,no activity,–,–,almost the same as that of the mice fed only with same dosage of starch,–,12.78,8.93,13.03,8.00,poor solubility,~6.0
